Laboratory results taken from US20220133753A1, “COMPOSITIONS AND METHODS USEFUL FOR TREATING DISEASES CHARACTERIZED BY INSUFFICIENT PANTOTHENATE KINASE ACTIVITY” (Comet Therapeutics, Inc., priority 2016, published 2022).
Where two headings read alike, the source gives them in different places.

Columns and labels:
[1] = test system: C. elegans pantothenate kinase (pnk-1) mutants; assay: C. elegans pnk-1 mutant motility and lifespan with CoA in the food; type: in vivo, Caenorhabditis elegans; details: CoA added to the food
Description: C. elegans Media and Strains: Standard culturing conditions were used for C. elegans maintenance at 20° C. N2 strain was used as a wild-type control. VC927, the PANK deletion mutant pnk-1 (ok1435)I/hT2[bli-4(e937) let-? (q782)qIs48](I; III), was obtained from the Caenorhabditis Genetics Center. To obtain synchronous cultures, worms were bleached with hypochlorite, and allowed to hatch in M9 buffer (3 g KH2PO4, 6 g Na2HPO4, 5 g NaCl, 1 ml 1 M MgSO4, H2O to 1 liter) overnight and cultured on standard Nematode Growth Medium (NGM) plates seeded with OP50 strain of Escherichia coli.
C. elegans Motility Assay: After synchronization, L1 C. elegans were grown on control NMG plates or NGM plates containing various concentrations of CoA. One-day old adults were placed in a drop of M9 buffer and allowed to recover for 30 sec. During the following 30 sec, the number of body bends was counted. A movement was scored as a bend when both the anterior and posterior ends of the animal turned to the same side. At least 15 worms were scored per condition and each experiment was repeated thrice.

[2] = Conversion of CoA in mouse serum by HPLC; type: in vitro ADME
Description: (§1) The conversion of CoA to 4′-phosphopantetheine was further investigated in mouse serum and in human serum.

[3] = Conversion of CoA in human serum by HPLC; type: in vitro ADME
Description: as §1

[4] = Parallel Artificial Membrane Permeability Assay (PAMPA); type: in vitro ADME; details: 5 h incubation, room temperature, phosphate-buffered saline
Description: FIG. 13E is a depiction of a Parallel Artificial Membrane Permeability Assay (PAMPA). Experiments were performed according to the manufacturer's instructions. In this assay, a two-well system is separated by an artificial lipid-oil-lipid membrane (shown in grey). To the lower (donor) compartment, a compound dissolved in buffer is added, the upper (acceptor) compartment contains only buffer. After 5 hours of incubation, concentration of compound is measured in both wells to assess its propensity to diffuse over the artificial membrane. The permeability was calculated according to the manufacturer's instruction (formulas are depicted to the right). Compounds that are below the assay threshold are predicted to be unable to pass membranes passively, whereas compounds above the threshold are able to pass membranes passively. Ceq=Equilibrium Concentration, CD=Concentration in donor well, VD=Volume of donor well (0.3 ml), CA=Concentration in acceptor well, VA=Volume of acceptor well (0.2 ml), P=Permeability, S=Membrane area (0.3 cm2), t=Incubation time (18000 s).
PAMPA assay procedure: Parallel Artificial Membrane Permeability Assay (PAMPA) was performed and processed according to manufacturer's instructions (BD Gentest Pre-coated PAMPA plates). Briefly, two superimposed wells are separated by an artificial lipid-oil-lipid membrane. The compound of interest (PPanSH, CoA, caffeine, amiloride) was added to the bottom well in phosphate-buffered saline, whereas the top well was filled with phosphate-buffered saline alone. After 5 h of incubation at room temperature, concentrations of the different compounds were measured using UV-VIS absorption spectroscopy (BMG Labtech SPECTROstar Omega) along with calibration curves for all compounds. The permeability efficiency was further calculated according to manufacturer's instructions. For caffeine and amiloride, four replicates were performed; for PPanSH and CoA twelve replicates were performed. Caffeine and amiloride were obtained from Sigma.

[5] = test system: COASY down-regulated HEK293 cells; assay: Knock-down of COASY by siRNA in HEK293 cells with CoA; type: cell-based, human; details: CoA added to the medium
Description: Knock-down of COASY by siRNA in mammalian HEK293 cells: HEK293 were maintained as described above. HEK293 were transfected with 200 nM COASY siRNA (GE Healthcare human COASY 80347 smartpool Cat no: M-006751-00-0010) or non-targeting siRNA (GE Healthcare Cat no: D-001206-13-20) using lipofectamine 2000 (Invitrogen) 4 h after transfection CoA was added in a final concentration of 25 uM. Cells were cultured for 3 days and then harvested for HPLC analysis of total CoA and PPanSH levels and Western blot (histone acetylation) as described below.
Western blot analysis and Antibodies: For Western blot analysis, cells were collected and washed with phosphate buffer saline (PBS), followed by centrifugation. The cells were lysed and sonicated in 1X Laemmli Sample Buffer and boiled for 5 min with 5% β-mercaptoethanol (Sigma). Protein content was determined using DC protein assay (BioRad). Equal amounts of protein were loaded on a 10 or 12.5% SDS-PAGE gel, transferred onto PVDF membranes and blocked with 5% milk in PBS/0.1% Tween, followed by overnight incubation with primary antibodies. […] Appropriate HRP-conjugated secondary antibodies (Amersham) were used and detection was performed using enhanced chemi-luminescence (Pierce cat nog: 32106) and Amersham hyperfilm (GE Healthcare). Band intensities were quantified with Image-studio software.

[6] = liver extracts, −20° C., after a week; cited from earlier work

With `CC(C)(COP(=O)(O)OP(=O)(O)OC[C@H]1O[C@@H](n2cnc3c(N)ncnc32)[C@H](O)[C@@H]1OP(=O)(O)O)[C@@H](O)C(=O)NCCC(=O)NCCS` [CoA, Coenzyme A] the “lifespan of pnk-1 mutants” value [1] was “improved these phenotypes significantly”, the “motility of pnk-1 mutants” value [1] was “improved these phenotypes significantly” and the “conversion of CoA in serum” value [2] was “converted to 4′-phosphopantetheine”. For the same compound, the “conversion of CoA in serum” value [3] was “converted to 4′-phosphopantetheine”, the “membrane permeation (PAMPA)” value [4] was “poorly permeating molecule and not” and the “rescue of COASY RNAi-induced decrease in intracellular CoA levels” value [5] was “neither rescued”. For the same compound, the “CoA, share of the initial concentration still present” value (3 h) was over 95%, the “conversion of CoA in serum” value (bovine (fetal calf)) was “converted into 4′-phosphopantetheine” and the CoA degraded (bovine (fetal calf), 30 min) was 90%. For the same compound, the “CoA degrades to” value [6] was 50%.
